Earlier results as cited in patent US20080096926A1, “Treatment Of Cognitive Impairment Using A Selective Dopamine D1 Receptor Agonist” (DrugAbuse Sciences SAS, priority 2002, published 2008).
Structures can show the parent of a compound that is named as a salt.

Legend:
[1] = system: young control monkeys and aged monkeys
MPTP treated monkeys = conditions: for anti-parkinsonian activity: MPTP treated monkeys
healthy volunteers = conditions: 0.1 mg, 32 healthy volunteers
[2] = system: non-human primate model of cognitive impairment
monkeys = conditions: 0.1, 0.3 and 1 mg/kg/day IM
[3] = system: prefrontal cortex of rhesus monkeys; conditions: local injections into the prefrontal cortex of rhesus monkeys

For Oc1cc2c(cc1O)C(c1ccccc1)CNCC2 (stereo not drawn) [SKF 38393], which “memory performance in monkeys following administration of D1 agonists” value [1] is on record?
Its value is “Improved memory performance”.

What about the anti-parkinsonian activity (MPTP treated monkeys) of the same compound?
The anti-parkinsonian activity was “without anti-parkinsonian activity”.

And the food intake (rats)?
The food intake was “decrease food intake”.

Which executive functioning (schizophrenia; schizophrenia) does the source give for Cc1nc2n(c(=O)c1CCN1CCC(c3noc4cc(F)ccc34)CC1)CCCC2 [Risperidone, risperidone] here?
Its executive functioning is “positive effects”.

What about the “verbal learning and memory” value (schizophrenia; schizophrenia) of the same compound?
Its value is “inconsistent results”.

And the working memory (schizophrenia; schizophrenia)?
Its working memory is “positive effects”.

Which “effect on spatial memory” value (healthy volunteers) does the source give for CCCN1C[C@H](CSC)C[C@@H]2c3cccc4[nH]cc(c34)C[C@H]21 [pergolide] here?
The value was “positive effect”.

For C=CCN1CCc2c(cc(O)c(O)c2Cl)C(c2ccccc2)C1 (stereo not drawn) [SKF 82958], which anti-parkinsonian activity (MPTP treated monkeys) is on record?
Its anti-parkinsonian activity is “increase locomotor activity and improve parkinsonian score”.

With CN1CCN(C2=Nc3cc(Cl)ccc3Nc3ccccc32)CC1 [clozapine] as the compound, how does the severe side effects (schizophrenia; in vivo) read?
The severe side effects was “agranulocytosis”.

What does the source list for CCCc1cc2c(s1)CN[C@@H]1CCc3cc(OC(C)=O)c(OC(C)=O)cc3[C@@H]21 [DAS-431, (−)-trans 9,10-diacetyloxy-2-propyl-4,5,5a,6,7,11b-hexahydro-3-thia-5-azacyclopent-1-ena[c] phenanthrene hydrochloride]?
reversal of haloperidol-induced working memory impairment ([2]; 0.01 μg/kg to 0.1 μg/kg IM, five blocks of five consecutive days): reverse the haloperidol effects; persistence of treatment effect after the final treatment ([2]; in some monkeys): more than a year; tolerance (monkeys): tolerance may have developed after 3 days of treatment; effect following repeated administration (MPTP-lesioned macaques; other studies (Michaelides et al. 1995)): potent effect is maintained; efficacy over time (MPTP-lesioned macaques; three-time daily 0.32 mg/kg s.c. for thirty days): no difference over time; antiparkinsonian activity (reported for D1 agonists) (MPTP treated monkeys; model not stated): antiparkinsonian activity; dose relationship of adverse events (1 mg to 40 mg IV per day): no clear dose relationship with the exception of nausea and vomiting in the cocaine abuser population and of dizziness in all subjects; tolerance to side effects (Parkinson's disease population): rapid tolerance to nausea and vomiting; EKG (in vivo): Transitory EKG changes; severity of adverse events (in vivo): mild or moderate; adverse events (previous treatment protocols): high incidence of dopamine related symptoms such as nausea, vomiting, hypotension, postural hypotension, dizziness, injection and application site reactions

With Oc1cc2c(cc1O)[C@H]1c3ccccc3CN[C@@H]1CC2 (racemic) [dihydrexidine] as the compound, how does the “memory performance in monkeys following administration of D1 agonists” value [1] read?
Its value is “Improved memory performance”.

And the memory performance ([1]; young control monkeys and aged monkeys)?
Its memory performance is “improves memory performance”.

What about the anti-parkinsonian activity (MPTP treated monkeys) of the same compound?
The anti-parkinsonian activity was “attenuates these parkinsonian signs while increasing eye blink rate”.

Which “performance on working memory tasks” value [3] does the source give for CN1CCc2cc(Cl)c(O)cc2[C@H]2c3ccccc3CC[C@@H]21 [SCH39166] here?
The value was “induce errors and increase latency of performance”.
